ChEMBL document CHEMBL1201862, “PubChem BioAssay data set” (2004)
Each block holds one compound with its values, some of them ahead of it. Active and inactive are the calls of the source.

Tests used:
[1] = target: Diphosphomevalonate decarboxylase (Streptococcus pneumoniae serotype 2 (strain D39 / NCTC 7466), UniProt Q9FD53); experiment: S. pneumoniae DPM-DC inhibition retest, confirmation, biochemical, cuvette format, coupled NADH fluorescence (AID 1028); assay type: functional
[2] = target: Photoreceptor-specific nuclear receptor (Homo sapiens, UniProt Q9Y5X4); experiment: NR2E3 inverse agonists, dose response, biochemical, TR-FRET (AID 463256); assay type: functional
Sequence of Photoreceptor-specific nuclear receptor (Q9Y5X4 whole entry): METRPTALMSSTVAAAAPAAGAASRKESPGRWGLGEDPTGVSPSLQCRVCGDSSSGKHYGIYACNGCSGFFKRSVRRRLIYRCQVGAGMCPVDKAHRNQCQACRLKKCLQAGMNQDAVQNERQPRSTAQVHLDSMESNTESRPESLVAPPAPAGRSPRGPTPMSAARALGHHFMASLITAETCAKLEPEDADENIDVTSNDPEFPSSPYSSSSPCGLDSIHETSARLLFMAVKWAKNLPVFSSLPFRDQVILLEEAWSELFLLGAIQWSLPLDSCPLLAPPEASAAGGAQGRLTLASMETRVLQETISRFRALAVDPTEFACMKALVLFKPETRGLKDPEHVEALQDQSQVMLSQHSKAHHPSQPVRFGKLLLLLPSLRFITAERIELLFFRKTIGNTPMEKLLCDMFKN

[3] = target: Peroxisome proliferator-activated receptor gamma/Nuclear receptor corepressor 2 (Homo sapiens, UniProt P37231+Q9Y618); experiment: Counterscreen for NR2E3 inverse agonists: TR-FRET-based biochemical high throughput dose response assay to identify inverse agonists of the interaction between peroxisome proliferator-activated receptor gamma (PPARg) and nuclear receptor co-repressor 2 (NCOR2).; assay type: functional
[4] = target: E3 ubiquitin-protein ligase Mdm2 (Homo sapiens, UniProt Q00987); experiment: enhancers of MDM2-luciferase reporter signal, concentration-effect titration, project on inhibitors of MDM2 ubiquitin ligase, cellular assay, luminescent readout, 384-well plate format (AID 1394); assay type: functional;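 also: MDM2 E3 inhibitors raise luminescence so EC50 is for signal enhancement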
Sequence of E3 ubiquitin-protein ligase Mdm2 (Q00987 whole entry): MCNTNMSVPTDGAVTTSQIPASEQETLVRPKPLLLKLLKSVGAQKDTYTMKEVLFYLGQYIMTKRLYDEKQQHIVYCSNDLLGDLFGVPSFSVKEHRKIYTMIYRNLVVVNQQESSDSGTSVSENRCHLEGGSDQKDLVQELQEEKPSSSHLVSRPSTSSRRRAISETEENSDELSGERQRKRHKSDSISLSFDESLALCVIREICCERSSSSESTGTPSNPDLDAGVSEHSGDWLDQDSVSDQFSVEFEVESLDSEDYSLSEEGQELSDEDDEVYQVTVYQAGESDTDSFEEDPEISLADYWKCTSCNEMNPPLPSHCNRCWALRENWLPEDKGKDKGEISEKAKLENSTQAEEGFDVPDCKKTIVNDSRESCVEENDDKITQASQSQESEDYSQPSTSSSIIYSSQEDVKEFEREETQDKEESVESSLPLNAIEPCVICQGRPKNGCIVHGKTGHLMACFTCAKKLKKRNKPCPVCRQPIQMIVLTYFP

[5] = RKO cell viability reduction, dose response, CellTiter-Glo luminescence (AID 1117322); assay type: functional
[6] = Concentration-dependent survival of SW480 colon cancer line, luminescence detection with CellTiter-Glo, half-maximal inhibitory concentration (AID 1117338); assay type: functional
[7] = SNU-C1 cell viability reduction, dose response, CellTiter-Glo luminescence (AID 1117323); assay type: functional, cell-based
[8] = cytotoxicity toward Colo320 cells – cell-based, CellTiter-Glo luminescence, IC50, dose response (AID 1117334); assay type: functional; settings: COLO 320
[9] = cytotoxicity toward HCT116 cells – cell-based, CellTiter-Glo luminescence, IC50, dose response (AID 1117332); assay type: functional; settings: HCT-116
[10] = cytotoxicity toward HT-29 cells – cell-based, CellTiter-Glo luminescence, IC50, dose response (AID 1117330); assay type: functional
[11] = HeLa 2N DNA content increase, dose response, cell-based, IC50 (AID 1117349); assay type: functional
Danio rerio = experiment: In Vivo Angiogenesis Dose-Response Confirmation. [Related pubchem assays: 732 (Assay preceding this confirmatory assay.)]; assay type: functional, organism-based
[12] = CellTiter-Glo luminescent dose response of DLD-1 viability loss (AID 1117352); assay type: functional
[13] = HeLa 4N DNA content increase, dose response, cell-based, IC50 (AID 1117351); assay type: functional
[14] = target: Mitogen-activated protein kinase 10 (Homo sapiens, UniProt P53779); experiment: Dose response biochemical screening assay for inhibitors of c-Jun N-Terminal Kinase 3 (JNK3). [Related pubchem assays: 746 ]
Sequence of Mitogen-activated protein kinase 10 (P53779 whole entry): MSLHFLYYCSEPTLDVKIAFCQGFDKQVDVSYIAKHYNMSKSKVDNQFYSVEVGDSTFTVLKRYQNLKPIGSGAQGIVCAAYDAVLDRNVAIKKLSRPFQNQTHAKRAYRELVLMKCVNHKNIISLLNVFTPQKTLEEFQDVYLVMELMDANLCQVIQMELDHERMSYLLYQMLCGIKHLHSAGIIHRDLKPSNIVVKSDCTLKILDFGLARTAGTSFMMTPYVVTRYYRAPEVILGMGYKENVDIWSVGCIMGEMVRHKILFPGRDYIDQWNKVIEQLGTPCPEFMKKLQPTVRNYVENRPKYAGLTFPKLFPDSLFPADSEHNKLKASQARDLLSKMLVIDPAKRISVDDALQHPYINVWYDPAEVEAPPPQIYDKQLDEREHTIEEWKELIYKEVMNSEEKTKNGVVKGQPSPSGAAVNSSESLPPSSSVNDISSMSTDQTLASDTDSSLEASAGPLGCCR

Prothrombin = Prothrombin (Homo sapiens, UniProt P00734); experiment: Thrombin 1536 HTS Dose Response Confirmation. [Related pubchem assays: 1046 (Thrombin 1536 HTS; hits were confirmed in this assay)]; assay type: functional
[15] = target: Dual specificity protein phosphatase 6 (Rattus norvegicus, UniProt Q64346); experiment: MKP-3 phosphatase inhibitors, primary screen, biochemical, rat enzyme, in vitro (AID 425)
Sequence of Dual specificity protein phosphatase 6 (Q64346 whole entry): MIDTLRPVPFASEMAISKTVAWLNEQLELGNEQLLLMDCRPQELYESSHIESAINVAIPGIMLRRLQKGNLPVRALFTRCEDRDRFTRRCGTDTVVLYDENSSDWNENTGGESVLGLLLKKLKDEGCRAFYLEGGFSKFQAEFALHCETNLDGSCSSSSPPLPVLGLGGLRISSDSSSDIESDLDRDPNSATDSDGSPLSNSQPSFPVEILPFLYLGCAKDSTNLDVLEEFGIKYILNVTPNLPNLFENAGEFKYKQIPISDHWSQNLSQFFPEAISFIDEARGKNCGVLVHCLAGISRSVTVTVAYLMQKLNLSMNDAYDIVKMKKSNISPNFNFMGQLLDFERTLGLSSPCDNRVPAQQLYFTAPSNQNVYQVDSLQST

[16] = Fluorescence Cell-Based Dose Response to Identify Inhibitors of Thrombin Receptor-Activating Peptide SFLLRN-Mediated P-Selectin Induction on Platelets. [Related pubchem assays: 1663 (Primary HTS), 1889 (retest at dose ), 1891 (counterscreen), 1678 (Project Summary)]; assay type: functional
[17] = target: Luciferin 4-monooxygenase (Photinus pyralis, UniProt P08659); experiment: firefly luciferase enzyme inhibitors, dose response, biochemical, luminescence (AID 1891)
Sequence of Luciferin 4-monooxygenase (P08659 whole entry): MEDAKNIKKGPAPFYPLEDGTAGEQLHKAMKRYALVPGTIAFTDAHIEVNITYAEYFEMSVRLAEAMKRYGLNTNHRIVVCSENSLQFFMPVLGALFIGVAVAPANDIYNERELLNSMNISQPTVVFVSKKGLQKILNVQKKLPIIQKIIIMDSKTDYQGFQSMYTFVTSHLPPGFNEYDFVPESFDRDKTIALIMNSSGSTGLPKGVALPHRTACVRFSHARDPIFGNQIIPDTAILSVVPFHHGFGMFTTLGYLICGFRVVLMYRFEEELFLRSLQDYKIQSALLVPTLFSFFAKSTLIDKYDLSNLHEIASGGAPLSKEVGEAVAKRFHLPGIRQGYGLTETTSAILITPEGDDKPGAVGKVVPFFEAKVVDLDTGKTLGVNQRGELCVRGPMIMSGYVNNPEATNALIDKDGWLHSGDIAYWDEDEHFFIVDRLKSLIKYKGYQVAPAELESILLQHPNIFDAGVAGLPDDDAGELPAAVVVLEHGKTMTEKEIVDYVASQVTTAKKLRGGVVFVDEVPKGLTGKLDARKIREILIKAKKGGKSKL

[18] = Luminescence Cell-Based Dose Confirmation HTS to Identify Inhibitors of Platelet Dense Granule Release. [Related pubchem assays: 1663 (Primary HTS), 1678 (Summary of Project)]; assay type: functional
SUMO-activating enzyme [19] = target: T1, SUMO-activating enzyme (Homo sapiens, UniProt Q9UBT2); experiment: SUMOylation inhibitor hit validation, confirmation, SUMOylation inhibitor project, biochemical, AlphaScreen (AID 2018); assay type: functional
T1 sequence (Q9UBE0 whole entry): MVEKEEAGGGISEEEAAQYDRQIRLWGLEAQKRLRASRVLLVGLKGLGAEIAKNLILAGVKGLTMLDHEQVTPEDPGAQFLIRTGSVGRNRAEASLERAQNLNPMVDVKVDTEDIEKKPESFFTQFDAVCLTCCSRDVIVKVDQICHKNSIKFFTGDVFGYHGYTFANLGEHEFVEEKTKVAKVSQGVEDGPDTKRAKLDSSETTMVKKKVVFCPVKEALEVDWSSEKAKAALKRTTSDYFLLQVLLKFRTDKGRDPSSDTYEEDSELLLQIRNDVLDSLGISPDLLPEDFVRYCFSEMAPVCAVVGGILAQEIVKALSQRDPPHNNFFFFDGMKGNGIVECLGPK
T1 sequence (Q9UBT2 whole entry): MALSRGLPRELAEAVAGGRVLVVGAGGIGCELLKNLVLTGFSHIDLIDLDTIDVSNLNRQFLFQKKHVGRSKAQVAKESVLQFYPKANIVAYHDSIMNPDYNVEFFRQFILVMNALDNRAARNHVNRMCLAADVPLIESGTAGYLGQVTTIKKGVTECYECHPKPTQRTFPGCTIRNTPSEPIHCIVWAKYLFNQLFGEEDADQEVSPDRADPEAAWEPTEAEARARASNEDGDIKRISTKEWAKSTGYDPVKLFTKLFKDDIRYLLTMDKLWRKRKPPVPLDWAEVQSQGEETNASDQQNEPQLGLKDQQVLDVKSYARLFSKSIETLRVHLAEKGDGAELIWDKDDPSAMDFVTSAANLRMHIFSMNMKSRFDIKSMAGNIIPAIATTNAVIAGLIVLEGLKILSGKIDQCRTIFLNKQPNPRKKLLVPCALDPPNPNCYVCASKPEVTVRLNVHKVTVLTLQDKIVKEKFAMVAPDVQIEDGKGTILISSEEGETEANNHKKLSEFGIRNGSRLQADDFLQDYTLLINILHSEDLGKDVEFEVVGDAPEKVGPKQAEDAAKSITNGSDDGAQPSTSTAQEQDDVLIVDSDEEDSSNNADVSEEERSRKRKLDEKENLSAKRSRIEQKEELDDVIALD

[20] = target: T2, Tyrosyl-DNA phosphodiesterase 2 (Homo sapiens, UniProt O95551); experiment: human TDP2 enzyme inhibitors, dose response, biochemical, epi absorbance, IC50 (AID 743297)
T2 sequence (O95551 whole entry): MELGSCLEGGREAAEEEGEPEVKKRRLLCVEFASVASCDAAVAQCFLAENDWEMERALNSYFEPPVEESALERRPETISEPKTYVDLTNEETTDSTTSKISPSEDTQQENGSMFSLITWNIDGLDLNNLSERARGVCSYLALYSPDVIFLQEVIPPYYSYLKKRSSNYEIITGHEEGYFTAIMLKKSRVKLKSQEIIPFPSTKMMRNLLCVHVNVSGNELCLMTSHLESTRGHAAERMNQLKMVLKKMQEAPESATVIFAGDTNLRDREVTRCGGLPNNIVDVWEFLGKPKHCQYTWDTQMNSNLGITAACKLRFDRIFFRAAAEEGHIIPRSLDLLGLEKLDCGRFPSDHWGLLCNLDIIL

SUMO-activating enzyme [21] = target: T1, SUMO-activating enzyme; experiment: inhibitors of in vitro SUMOylation cascade, primary screen, biochemical, HTRF, uHTS (AID 2006); assay type: protein-complex assay
Aminopeptidase N = target: T3, Aminopeptidase N (Plasmodium falciparum FcB1/Columbia, UniProt O96935); experiment: P. falciparum M1AAP inhibitors, biochemical, fluorogenic H-Leu-NHMec substrate, 1536-well (AID 1445); parameters: species or system Plasmodium falciparum 3D7, 3D7
T3 sequence (O96935 whole entry): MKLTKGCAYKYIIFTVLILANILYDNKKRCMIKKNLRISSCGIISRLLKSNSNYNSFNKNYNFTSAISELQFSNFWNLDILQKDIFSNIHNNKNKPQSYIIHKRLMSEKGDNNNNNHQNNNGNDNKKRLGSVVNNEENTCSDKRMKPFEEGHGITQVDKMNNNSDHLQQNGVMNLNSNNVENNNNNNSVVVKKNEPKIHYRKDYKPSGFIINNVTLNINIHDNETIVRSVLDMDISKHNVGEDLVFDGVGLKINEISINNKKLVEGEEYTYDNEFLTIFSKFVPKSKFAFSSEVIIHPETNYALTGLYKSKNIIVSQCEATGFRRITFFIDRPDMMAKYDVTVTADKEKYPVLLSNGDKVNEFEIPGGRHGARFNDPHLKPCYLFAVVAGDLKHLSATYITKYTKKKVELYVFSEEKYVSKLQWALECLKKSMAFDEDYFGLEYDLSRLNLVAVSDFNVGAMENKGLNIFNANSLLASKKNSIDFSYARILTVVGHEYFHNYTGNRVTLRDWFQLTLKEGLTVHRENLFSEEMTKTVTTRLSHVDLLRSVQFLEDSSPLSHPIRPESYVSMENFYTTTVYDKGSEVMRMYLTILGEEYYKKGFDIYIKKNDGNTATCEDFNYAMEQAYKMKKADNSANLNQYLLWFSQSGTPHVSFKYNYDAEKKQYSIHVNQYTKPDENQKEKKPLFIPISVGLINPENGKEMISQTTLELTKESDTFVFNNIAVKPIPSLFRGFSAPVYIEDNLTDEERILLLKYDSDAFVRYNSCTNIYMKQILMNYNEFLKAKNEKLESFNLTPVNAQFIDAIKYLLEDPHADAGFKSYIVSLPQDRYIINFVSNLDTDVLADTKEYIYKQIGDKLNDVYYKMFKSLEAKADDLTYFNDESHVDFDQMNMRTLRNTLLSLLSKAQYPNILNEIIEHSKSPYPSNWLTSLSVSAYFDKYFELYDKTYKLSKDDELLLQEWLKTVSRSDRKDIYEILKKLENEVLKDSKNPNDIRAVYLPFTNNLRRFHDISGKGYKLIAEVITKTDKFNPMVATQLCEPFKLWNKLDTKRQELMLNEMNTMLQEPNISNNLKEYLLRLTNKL

SUMO E1/E2 = SUMO E1/E2 (Homo sapiens, UniProt P63279+Q9UBE0+Q9UBT2); experiment: SAR analysis of SUMOylation using HTRF in an in-Vitro dose response assay. [Related pubchem assays (depositor defined):AID2006, AID2011, AID2018, AID2069, AID2658]; assay type: functional
Sequence of SUMO E1/E2 (Q9UBE0 whole entry): as the sequence (Q9UBE0 whole entry) above
Sequence of SUMO E1/E2 (Q9UBT2 whole entry): as the sequence (Q9UBT2 whole entry) above
Sequence of SUMO E1/E2 (P63279 whole entry): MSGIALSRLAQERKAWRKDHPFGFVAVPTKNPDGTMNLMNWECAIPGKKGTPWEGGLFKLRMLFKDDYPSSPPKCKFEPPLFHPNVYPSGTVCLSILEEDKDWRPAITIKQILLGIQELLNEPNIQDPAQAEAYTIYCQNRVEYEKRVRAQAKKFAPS

[22] = target: Heat shock protein HSP 90-alpha (Homo sapiens, UniProt P07900); experiment: Luminescence-based dose response biochemical high throughput screening assay for inhibitors of the Heat Shock Protein 90 (HSP90). [Related pubchem assays: 1831 (Summary AID.), 1846 (Confirmation screen.), 1789 (Primary screen.)]

Sequence of Diphosphomevalonate decarboxylase (Q9FD53 whole entry): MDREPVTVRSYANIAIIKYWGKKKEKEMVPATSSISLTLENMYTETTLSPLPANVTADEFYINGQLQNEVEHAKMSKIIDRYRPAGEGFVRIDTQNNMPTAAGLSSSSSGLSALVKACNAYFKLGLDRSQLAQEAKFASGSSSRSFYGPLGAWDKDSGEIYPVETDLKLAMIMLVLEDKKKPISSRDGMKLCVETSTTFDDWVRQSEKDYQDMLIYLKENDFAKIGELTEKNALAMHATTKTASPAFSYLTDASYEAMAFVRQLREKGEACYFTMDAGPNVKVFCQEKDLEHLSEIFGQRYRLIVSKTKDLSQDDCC

SMILES: Cc1ccc(-n2sc3ccccc3c2=O)cc1S(=O)(=O)N1CCCC1
IC50 [1]: 4.15 µM (active)

SMILES: Fc1ccc(C(OCCN2CCN(CCCc3ccccc3)CC2)c2ccc(F)cc2)cc1
IC50 [5]: 0.113 µM (active)
IC50 [6]: 2.07 µM (active)
IC50 [7]: 1.82 µM (active)
IC50 [8]: > 20 µM (inactive)
IC50 [9]: 4.87 µM (active)
IC50 [10]: 1.49 µM (active)
IC50 [11]: > 10 µM (inactive)
IC50 (Danio rerio): 5.73 µM (not active)
IC50 [12]: 0.903 µM (active)
IC50 [13]: > 10 µM (inactive)

SMILES: Cc1ccc2c(c1)CC1(CN2C)C(=O)OC2(CCCCC2)OC1=O
IC50 [14]: > 93.1 µM (not active)
IC50 (Prothrombin): 4.14 µM (active)

SMILES: Cc1nc(O)c(C#N)c(C)c1CSc1ncccn1
EC50 [16]: < 1 µM (active)
EC50 [17]: > 112 µM (not active)
EC50 [18]: 3.68 µM (active)

The next lines start with the values.

IC50 [2]: 18.7 µM (not active)
IC50 [3]: > 39.8 µM (not active)
SMILES: CC(=O)Nc1cccc(Oc2nc(C(F)(F)F)nc3ccccc23)c1

EC50 [4]: 12.3 µM (not active)
SMILES: COc1ccc(-c2nc(C)c(C(C)=O)n2O)cc1

IC50 [15]: > 100 µM (not active)
SMILES: CCN(CC)CCCN1C(=O)C(O)=C(C(=O)c2ccccc2)C1c1ccccn1 (stereo unspecified)

IC50 (SUMO-activating enzyme [19]): 0.88 µM (active)
IC50 [20]: 68.1 µM (inactive)
IC50 (SUMO-activating enzyme [21]): 1.5 µM (active)
IC50 (Aminopeptidase N): 36.2 µM (active)
IC50 (SUMO E1/E2): 4.29 µM (active)
IC50 [22]: 1.61 µM (active)
SMILES: C=CCn1c(NS(=O)(=O)c2ccccc2)c(S(=O)(=O)c2ccc(C)cc2)c2nc3ccccc3nc21
